Experimental data as given in patent publication US20060251651A1, “Antagonist and agonist which bind to a strong binding site of chemokine receptor” (priority 2002, published 2006).
Values joined by “and” are separate entries in the source; they are usually repeats but may differ in a detail not shown here. Equal entries are not always repeated. “Also recorded” adds a separate entry of the source. Where two headings read alike, the source gives them in different places.

Columns and labels:
[1] = target: T1, hCCR5 (Homo sapiens, UniProt P51681); experiment: Migration test induced by MIP-1α using hCCR5-Ba/F3 cells; assay type: cell-based; set-up: expressed in transfected cells; host or cells: Ba/F3 cells electroporated with linearised pEF-BOS-bsr/hCCR5, blasticidin-selected clone; details: 24 well transwell, 3 hours; read-out: IC50, inhibition of migration of hCCR5-Ba/F3 cells by MIP-1α
T1 sequence (P51681 whole entry): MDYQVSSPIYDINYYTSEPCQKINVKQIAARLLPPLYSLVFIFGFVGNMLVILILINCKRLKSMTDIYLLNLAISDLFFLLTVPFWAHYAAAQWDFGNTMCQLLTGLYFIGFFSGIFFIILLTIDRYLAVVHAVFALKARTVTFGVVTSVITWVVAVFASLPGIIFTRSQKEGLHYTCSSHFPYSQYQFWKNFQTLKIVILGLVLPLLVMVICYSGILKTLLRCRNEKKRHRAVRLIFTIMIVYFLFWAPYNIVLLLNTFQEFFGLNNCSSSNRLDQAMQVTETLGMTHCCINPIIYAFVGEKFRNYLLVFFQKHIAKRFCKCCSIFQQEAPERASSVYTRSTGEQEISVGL
Description: Firstly, 0.5 ml of a medium containing […] was added to the lower chamber (transwell bottom) of a 24 well transwell plate. […] The migration was started by moving the upper chamber wells of the transwell plate to the lower chamber wells containing chemokine. […] Measurement of the number of cells was carried out using a flow cytometer (BECTON DICKINSON), and the number of cells inside the gate (FSC×SSC) was counted. The number of migrated cells was defined as their ratio (%) to the count when the firstly added cells were analyzed by FACS, and the IC50 value was calculated from the inhibitory activity for the DMSO control group.

[2] = target: T1, hCCR5; experiment: Inhibitory action upon the hCCR5 binding of tritium-labeled compound 1 (competition test); set-up: expressed in transfected cells; host or cells: Ba/F3 cells electroporated with linearised pEF-BOS-bsr/hCCR5, blasticidin-selected clone; details: hCCR5-CHO cells; for inhibition of the hCCR5 binding of tritium-labeled compound 1: when the concentration was increased
Description: Human CCR5 expressing cells (hCCR5-CHO cells) were inoculated into a culture plate, cultured using a medium (Ham's F-12 medium/10% FBS/Antibiotic-Antimycotic) at 37° C. for 1 day in a CO2 incubator of 5% CO2 and used in the test. The medium in each well was discarded, the cells were washed with an assay buffer (Ham's F-12 medium/0.5% BSA/20 mmol/l HEPES), and the assay buffer was added thereto. […] After incubation at room temperature for 2 hours, the cells were washed with 1 ml/well of ice-cooled D-PBS. The cells were lysed with 1 mol/l NaOH and neutralized, and then a scintillator (ACS II, Amersham) was added thereto. Radioactivity of each vial was measured using a liquid scintillation counter (TRI-CARB 2900TR, Perkin Elmer Life Sciences).

[3] = target: T1, hCCR5; experiment: Ligand binding inhibition test for CCR5 under severe washing condition; set-up: expressed in transfected cells; host or cells: CHO-dhfr(-) stably transfected with pEF-BOS-bsr/hCCR5; details: for IC50: hCCR5-CHO cells, compound 40 minutes, washed 8 times with PBS, 4 hours at 37° C., then radioisotope-labeled ligand; for inhibitory activity, times higher than that of SCH-351125 / inhibitory activity, times higher than that of TAK-779: ratio of IC50 values under severe washing condition
Description: Inhibitory effects of CCR5 antagonists (e.g., TAK-779, SCH-351125 and triazaspiro[5.5]undecane derivatives) were examined using a binding test system of CCR5 endogenous ligand to CCR5.
Human CCR5 expressing cells (hCCR5-CHO cells) were inoculated into a culture plate, cultured using a medium (Ham's F-12 medium/10% FBS/Antibiotic-Antimycotic) at 37° C. for 1 day (or 2 days) in a CO2 incubator of 5% CO2 and used in the test. The medium in each well was discarded, the cells were washed with an assay buffer (Ham's F-12 medium/0.5% BSA/20 mmol/l HEPES), and the assay buffer was added to each well. A compound to be tested having respective concentration was added thereto and incubated at room temperature for 40 minutes, and then the cells were washed 8 times with PBS (1 ml/well). The assay buffer was further added and incubated at 37° C. for 4 hours. After 4 hours, the assay buffer was discarded and a radioisotope-labeled ligand was added. The culture mixture containing the cells was incubated at room temperature for 40 minutes and then washed three times with 1 ml/well of ice-cooled PBS. The cells were lysed with 1 mol/I sodium hydroxide aqueous solution, and radioactivity of the cell lysate was measured using a γ counter.

[4] = target: T1, hCCR5; experiment: Anti-hCCR5 antibody binding inhibition test (flow cytometry); set-up: expressed in transfected cells; host or cells: Ba/F3 cells electroporated with linearised pEF-BOS-bsr/hCCR5, blasticidin-selected clone; details: hCCR5-CHO cells, 10 μmol/l of each compound, FITC-labeled antibody
Description: […] The medium was removed from the flask, and the cells were peeled off and recovered by adding 1 mmol/l EDTA/PBS. The recovered cells were washed once with PBS and again suspended in PBS, and then the number of cells was counted. After centrifugation and subsequent removal of the supernatant by suction, the cells were suspended in an assay buffer (0.5% FBS/Ham's F-12 medium). Each of the compounds to be tested was added to the cell suspension and incubated on ice. An FITC-labeled anti-hCCR5 antibody (45531.111 or 45523.111) or an FITC-labeled isotype control antibody was further added thereto and allowed to undergo the reaction on ice under shading. After the reaction, the cells were washed twice with ice-cooled PBS and again suspended in ice-cooled FACS buffer (2% FBS/PBS), and the amount (fluorescence intensity) of the bound anti-hCCR5 antibody was measured using a flow cytometer (BECTON DICKINSON).

[5] = target: T1, hCCR5; experiment: Persistency of hCCR5 binding in the living body of mouse after compound administration; assay type: in vivo; set-up: expressed in transfected cells; host or cells: Ba/F3 cells electroporated with linearised pEF-BOS-bsr/hCCR5, blasticidin-selected clone; details: Balb/c mouse
Description: The peripheral blood was centrifuged using Lymphocyte-M to prepare PBMC, and the spleen was crushed, subjected to hemolytic treatment and then washed to obtain cells. The thus prepared cells were stained with PE-labeled anti-hCCR5 antibody (45531.111). CFSE-positive hCCR5-Ba/F3 Cells were detected by a flow cytometer, and fluorescence intensity (mean value) of PE-labeled anti-hCCR5 antibodies (2D7 and 45531.111) bound to the cells was measured.
The occupying ratio was calculated by the following formulae.
Correction Value [formula]
Receptor Occupying Ratio (R) [formula]

[6] = Blood plasma levels of compound 1 in mouse after administration into abdominal cavity; assay type: in vivo; details: intraperitoneal, Balb/c mouse, read-out: blood plasma level

| Compound | IC50 [1] | inhibition of the hCCR5 binding of tritium-labeled compound 1 [2] | IC50 [3] | inhibition of binding of anti-hCCR5 antibody 45523.111 to hCCR5 expressing cells [4] | inhibition of binding of anti-hCCR5 antibody 45531.111 to hCCR5 expressing cells [4] | inhibitory activity, times higher than that of SCH-351125 [3] | inhibitory activity, times higher than that of TAK-779 [3] | inhibition of binding of anti-hCCR5 antibody 45531.111 to hCCR5 expressing cells ([4]; hydrochloride) | other results |
| --- | --- | --- | --- | --- | --- | --- | --- | --- | --- |
| CCO/N=C(\c1ccc(Br)cc1)C1CCN(C2(C)CCN(C(=O)c3c(C)cc[n+]([O-])c3C)CC2)CC1 [SCH-351125] | 14.4 nM and 21 nM | complete inhibition | 16.7 nM | inhibited binding; also recorded: strongly inhibited | weak | – | – | – | – |
| Cc1ccc(-c2ccc3c(c2)C=C(C(=O)Nc2ccc(C[N+](C)(C)C4CCOCC4)cc2)CCC3)cc1.[Cl-] [TAK-779] | 55 nM | complete inhibition | 10.4 nM | only weakly; also recorded: weak inhibition | only weakly and weak | – | – | – | – |
| CCCCN1C(=O)[C@@H]([C@H](O)C2CCCCC2)NC(=O)C12CCN(Cc1ccc(Oc3ccc(C(=O)O)cc3)cc1)CC2.Cl [compound 1, (3R)-1-butyl-2,5-dioxo-3-((1R)-1-hydroxy-1-cyclohexylmethyl)-9-(4-(4-carboxyphenyloxy)phenylmethyl)-1,4,9-triazaspiro[5.5]undecane hydrochloride] | – | – | – | strongly inhibited | – | about 4 times | about 2.5 times | strongly inhibited; also recorded: strong | hCCR5 occupied in the spleen ([5]; 3 mg/kg into abdominal cavity, 0.5 hours): 92%; hCCR5 occupied in the spleen ([5]; 3 mg/kg into abdominal cavity, 4 hours): 55%; hCCR5 occupied in the spleen ([5]; 3 mg/kg into abdominal cavity, 8 hours): 32%; hCCR5 occupied in the spleen ([5]; 30 mg/kg into abdominal cavity, 0.5 hours): 96%; hCCR5 occupied in the spleen ([5]; 30 mg/kg into abdominal cavity, 4 hours): 69%; hCCR5 occupied in the spleen ([5]; 30 mg/kg into abdominal cavity, 8 hours): 54%; competition with TAK-779 and SCH-351125 for CCR5 ([2]; displacement curves shifted in parallel, hydrochloride): competes; also recorded: Competitively antagonizes; concentration at 0.5 h ([6]; 3 mg/kg into abdominal cavity): 352 nM; concentration at 4 h ([6]; 3 mg/kg into abdominal cavity): 5 nM; concentration at 8 h ([6]; 3 mg/kg into abdominal cavity): 1 nM; concentration at 0.5 h ([6]; 30 mg/kg into abdominal cavity): 1610 nM; concentration at 4 h ([6]; 30 mg/kg into abdominal cavity): 22 nM; concentration at 8 h ([6]; 30 mg/kg into abdominal cavity): 4 nM |
| CCCCN1C(=O)[C@@H]([C@H](O)C2CCCCC2)NC(=O)C12CCN(Cc1ccc(Oc3ccc(C(=O)NC)cc3)cc1)CC2.Cl [compound 2, (3R)-1-butyl-2,5-dioxo-3-((1R)-1-hydroxy-1-cyclohexylmethyl)-9-(4-(4-methylaminocarbonylphenyloxy)phenylmethyl)-1,4,9-triazaspiro[5.5]undecane hydrochloride] | – | – | 1.5 nM | strongly inhibited | – | about 11 times | about 7 times | strongly inhibited; also recorded: strong | – |
